Experiment: recombinant barcode read abundance after kanamycin selection (control-corrected) (log10(CPM+1)); higher = more efficient recombination; sequences stand for … in AGTGCAGAGAAAATCGGCCAGTTTTCTCTGCCTGCAGTCCGCATGCCGT…AGATTTATGCAGCGGACTGCCTTTCTCCCAAAGTGATAAACCGGACAGTATCATGGACCGGTTTTCCCGGTAATCCGTATTTGCAAGGTTGGTTTCACT; site = the 11-nt target
Outline: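 Each value is log10(CPM+1). It describes recombination efficiency, taken as averaged, control-corrected counts per million of barcodes at recombinant junctions. The pooled E. coli library paired targets with IS621 bridge RNA target-binding loops, was co-electroporated with a donor plasmid, and was plated twice on chloramphenicol/ampicillin LB agar (control) and twice on chloramphenicol/ampicillin/kanamycin containing 0.1 mM IPTG.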
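Note: IS621 recombinase and bridge RNA in Escherichia coli cells.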

With “GCTGGTCCTTGGGTTCTAACCTGTTGCCT (site GCCGGTCCTAG)” as the sequence, how does the “recombinant barcode read abundance (log10)” value read?
The value was 0.431.

With “GCTGGTCCTTGGGTTCTAACCTGTTGCCT (site GCGGGTCCTAG)” as the sequence, how does the “recombinant barcode read abundance (log10)” value read?
The value was 0.205.

For “GCTGGTCCTTGGGTTCTAACCTGTTGCCT (site GCTGGTCCTAG)”, which “recombinant barcode read abundance (log10)” value is on record?
The value was 1.75.

For “GCTTAAACTTGGGTTCTAACCTGTTGCCT (site ATGGCCTCTTA)”, which “recombinant barcode read abundance (log10)” value is on record?
The value was 0.0724.

With “GCTTAAACTTGGGTTCTAACCTGTTGCCT (site GCTTAAACTAG)” as the sequence, how does the “recombinant barcode read abundance (log10)” value read?
Its value is 1.04.

For “GCTTCCACTTGGGTTCTAACCTGTTGCCT (site ACTTCCACTAG)”, which “recombinant barcode read abundance (log10)” value is on record?
Its value is 0.074.

Which “recombinant barcode read abundance (log10)” value does the source give for “GCTTCCACTTGGGTTCTAACCTGTTGCCT (site CCTTCCACTAG)” here?
The value was 0.24.

For “GCTTCCACTTGGGTTCTAACCTGTTGCCT (site GCTTCCACTAG)”, which “recombinant barcode read abundance (log10)” value is on record?
Its value is 0.381.

Which “recombinant barcode read abundance (log10)” value does the source give for “GCTTCCACTTGGGTTCTAACCTGTTGCCT (site TCTTCCACTAG)” here?
Its value is 0.196.

With “GCTTCGTCTTGGGTTCTAACCTGTTGCCT (site GCATCGTCTAG)” as the sequence, how does the “recombinant barcode read abundance (log10)” value read?
The value was 0.427.

For “GCTTCGTCTTGGGTTCTAACCTGTTGCCT (site GCCTCGTCTAG)”, which “recombinant barcode read abundance (log10)” value is on record?
Its value is 0.129.

With “GCTTCGTCTTGGGTTCTAACCTGTTGCCT (site GCGTCGTCTAG)” as the sequence, how does the “recombinant barcode read abundance (log10)” value read?
The value was 0.0292.

For “GCTTCGTCTTGGGTTCTAACCTGTTGCCT (site GCTTCGTCTAG)”, which “recombinant barcode read abundance (log10)” value is on record?
Its value is 0.393.

For “GGAAAAGCTTGGGTTCTAACCTGTTGCTT (site GGAAAAGCTAA)”, which “recombinant barcode read abundance (log10)” value is on record?
Its value is 0.268.

For “GGAAAAGCTTGGGTTCTAACCTGTTGCTT (site TCTTCGACTCT)”, which “recombinant barcode read abundance (log10)” value is on record?
The value was 0.153.

For “GGAACGACTTGGGTTCTAACCTGTTGCGT (site CTCCGAGCTGT)”, which “recombinant barcode read abundance (log10)” value is on record?
Its value is 0.0623.

For “GGAACGACTTGGGTTCTAACCTGTTGCGT (site GGAACGACTAC)”, which “recombinant barcode read abundance (log10)” value is on record?
The value was 1.93.

With “GGACACTCTTGGGTTCTAACCTGTTGCCT (site GGACACTCTAG)” as the sequence, how does the “recombinant barcode read abundance (log10)” value read?
Its value is 2.75.

Which “recombinant barcode read abundance (log10)” value does the source give for “GGACACTCTTGGGTTCTAACCTGTTGCCT (site GGACACTCTTA)” here?
The value was 1.09.

For “GGACATTCTTGGGTTCTAACCTGTTGCAT (site GGACATTCTAT)”, which “recombinant barcode read abundance (log10)” value is on record?
The value was 0.872.

For “GGACATTCTTGGGTTCTAACCTGTTGCAT (site GTCCATTCTAT)”, which “recombinant barcode read abundance (log10)” value is on record?
Its value is 0.0875.

With “GGACCTACTTGGGTTCTAACCTGTTGCCA (site GAACCTACTTG)” as the sequence, how does the “recombinant barcode read abundance (log10)” value read?
The value was 0.0276.

With “GGACCTACTTGGGTTCTAACCTGTTGCCA (site GGACCTACTTG)” as the sequence, how does the “recombinant barcode read abundance (log10)” value read?
Its value is 0.483.

Which “recombinant barcode read abundance (log10)” value does the source give for “GGACGCTCTTGGGTTCTAACCTGTTGCCT (site GGACGCTCTAG)” here?
The value was 1.83.

For “GGACGCTCTTGGGTTCTAACCTGTTGCCT (site GGTCGCTCTAG)”, which “recombinant barcode read abundance (log10)” value is on record?
The value was 0.113.

Which “recombinant barcode read abundance (log10)” value does the source give for “GGACGGCCTTGGGTTCTAACCTGTTGCGT (site CTACGGCCTAC)” here?
The value was 0.152.

With “GGACGGCCTTGGGTTCTAACCTGTTGCGT (site GGACGGCCTAC)” as the sequence, how does the “recombinant barcode read abundance (log10)” value read?
The value was 2.53.

With “GGACGGGCTTGGGTTCTAACCTGTTGCAG (site GAACGGGCTCC)” as the sequence, how does the “recombinant barcode read abundance (log10)” value read?
Its value is 0.0984.

For “GGACGGGCTTGGGTTCTAACCTGTTGCAG (site GGACGGGCTCT)”, which “recombinant barcode read abundance (log10)” value is on record?
The value was 2.48.

With “GGAGACGCTTGGGTTCTAACCTGTTGCCT (site GGAGAAGCTAG)” as the sequence, how does the “recombinant barcode read abundance (log10)” value read?
Its value is 0.344.

Which “recombinant barcode read abundance (log10)” value does the source give for “GGAGACGCTTGGGTTCTAACCTGTTGCCT (site GGAGACGCTAG)” here?
Its value is 1.32.

For “GGAGACGCTTGGGTTCTAACCTGTTGCCT (site GGAGAGGCTAG)”, which “recombinant barcode read abundance (log10)” value is on record?
Its value is 0.676.

Which “recombinant barcode read abundance (log10)” value does the source give for “GGAGACGCTTGGGTTCTAACCTGTTGCCT (site GGAGATGCTAG)” here?
The value was 0.235.

Which “recombinant barcode read abundance (log10)” value does the source give for “GGAGCACCTTGGGTTCTAACCTGTTGCCT (site GGAGCACCTAG)” here?
The value was 2.38.

For “GGAGCACCTTGGGTTCTAACCTGTTGCCT (site GGAGCAGCTAG)”, which “recombinant barcode read abundance (log10)” value is on record?
The value was 0.0718.

With “GGAGCGTCTTGGGTTCTAACCTGTTGCGT (site GGAGCGTCTAC)” as the sequence, how does the “recombinant barcode read abundance (log10)” value read?
The value was 1.61.

With “GGAGCGTCTTGGGTTCTAACCTGTTGCGT (site GGCGCGTCTAT)” as the sequence, how does the “recombinant barcode read abundance (log10)” value read?
Its value is 0.299.

For “GGAGGGGCTTGGGTTCTAACCTGTTGCCT (site GGAGGGGCTAG)”, which “recombinant barcode read abundance (log10)” value is on record?
Its value is 1.75.

For “GGAGGGGCTTGGGTTCTAACCTGTTGCCT (site TGAGGTGCTAG)”, which “recombinant barcode read abundance (log10)” value is on record?
The value was 0.0107.

With “GGAGTGACTTGGGTTCTAACCTGTTGCTT (site GGAGTGACTAA)” as the sequence, how does the “recombinant barcode read abundance (log10)” value read?
The value was 0.979.

With “GGAGTGACTTGGGTTCTAACCTGTTGCTT (site GGAGTGACTTA)” as the sequence, how does the “recombinant barcode read abundance (log10)” value read?
Its value is 0.176.

Which “recombinant barcode read abundance (log10)” value does the source give for “GGATAGACTTGGGTTCTAACCTGTTGCGT (site GGATACACTAC)” here?
Its value is 0.107.

With “GGATAGACTTGGGTTCTAACCTGTTGCGT (site GGATAGACTAC)” as the sequence, how does the “recombinant barcode read abundance (log10)” value read?
Its value is 1.95.
